The values below come from the RepoRT retention time repository (doi:10.1021/es4044374).

Molecules are shown by their SMILES.

A short description of the series: RP, Waters XBridge C18, 50 × 2.1 mm, 3.5 µm, 30 °C, 0.2 mL/min, estimated dead time 0.55 min; A: water + 0.1% formic acid, pH 3; B: methanol + 0.1% formic acid, pH 3; gradient (min/%B) 0/10 4/50 17/95 25/95 25.1/10 30/10. To be noted: stereoisomer not certain.
As for `CN1CCC23c4c5ccc(O)c4OC2C(O)C=CC3C1C5` (stereo not given) [Morphine], the LC retention time was 1.1 min.
To `CCCCC(C#N)(Cn1cncn1)c1ccc(Cl)cc1` (stereo not given) [Myclobutanil] belongs 11.2 min.
For the compound `COc1c(C)c2c(c(O)c1CC=C(C)CCC(=O)O)C(=O)OC2` [Mycophenolic acid], the LC retention time was 9.9 min.
Take `CC(=O)Nc1ccc(S(=O)(=O)Nc2ncccn2)cc1` [N4-Acetylsulfadiazine]: the LC retention time was 3.6 min.
Next, `COc1cc(OC)nc(NS(=O)(=O)c2ccc(NC(C)=O)cc2)n1` [N4-Acetylsulfadimethoxine]: 6.3 min; `CC(=O)Nc1ccc(S(=O)(=O)Nc2nc(C)cc(C)n2)cc1` [N4-Acetylsulfamethazine]: 4.5 min; `CC(=O)Nc1ccc(S(=O)(=O)Nc2cc(C)on2)cc1` [N4-Acetylsulfamethoxazole]: 5.5 min.
For the compound `CC(=O)Nc1ccc(S(=O)(=O)Nc2nccs2)cc1` [N4-Acetylsulfathiazole], the LC retention time is 4.1 min.
With `CN=CNc1ccc(C)cc1C` [N'-(2,4-Dimethylphenyl)-N-methylformamidine], the LC retention time was 4.5 min.
Consider `COc1ccc(C(CN)C2(O)CCCCC2)cc1` (stereo not given) [N,N-Didesmethylvenlafaxine], for which the LC retention time is 6.3 min.
`Cc1ccc(NS(=O)(=O)N(C)C)cc1` [N,N-Dimethyl-N'-p-tolylsulphamide]: the LC retention time is 7.5 min.
To `CN(C)S(=O)(=O)Nc1ccccc1` [N,N-Dimethyl-N'-phenylsulfamide] belongs 6.3 min; to `CN(C)S(N)(=O)=O` [N,N-Dimethylsulfamide], 1.1 min.
Next, `CNCC(c1ccc(O)cc1)C1(O)CCCCC1` (stereo not given) [N,O-Didesmethylvenlafaxine]: 4.9 min; `CNCC(c1ccc(OC)cc1)C1(O)CCCCC1` (stereo not given) [N-Desmethylvenlafaxine]: 6.3 min.
Regarding `CCNS(=O)(=O)C(F)(F)C(F)(F)C(F)(F)C(F)(F)C(F)(F)C(F)(F)C(F)(F)C(F)(F)F` [N-Ethylperfluoroctansulfonamid (N-EtFOSA)], the LC retention time is 17.1 min.
On to `CCN(CC(=O)O)S(=O)(=O)C(F)(F)C(F)(F)C(F)(F)C(F)(F)C(F)(F)C(F)(F)C(F)(F)C(F)(F)F` [N-Ethylperfluorooctane sulfonamidoacetic acid], for which the LC retention time was 16.9 min.
For `CN(CC(=O)O)S(=O)(=O)C(F)(F)C(F)(F)C(F)(F)C(F)(F)C(F)(F)C(F)(F)C(F)(F)C(F)(F)F` [N-methylperfluorooctane sulfonamidoacetic acid], the LC retention time is 16.5 min.
In the case of `O=C1CCC2(O)C3Cc4ccc(O)c5c4C2(CCN3CC2CC2)C1O5` (stereo not given) [Naltrexone], the LC retention time was 3.1 min.
Turning to `CCN(CC)C(=O)C(C)Oc1cccc2ccccc12` (stereo not given) [Napropamid], the LC retention time is 11.7 min.
As to `COc1ccc2cc(C(C)C(=O)O)ccc2c1` (stereo not given) [Naproxen], the LC retention time was 10.2 min.
Take `COc1ccc(CCC(=O)c2c(O)cc(OC3OC(CO)C(O)C(O)C3OC3OC(C)C(O)C(O)C3O)cc2O)cc1O` (stereo not given) [Neohesperidin dihydrochalcone]: the LC retention time is 7.2 min.
As for `COC(=O)C(Cc1ccccc1)NC(=O)C(CC(=O)O)NCCC(C)(C)C` (stereo not given) [Neotame], the LC retention time is 9 min.
In the case of `COc1cc(OC)nc(NC(=O)NS(=O)(=O)c2ncccc2C(=O)N(C)C)n1` [Nicosulfuron], the LC retention time was 7.1 min.
Next, `CCn1cc(C(=O)O)c(=O)c2cc(F)c(N3CCNCC3)cc21` [Norfloxacin]: 4.4 min.
Regarding `CN(C)CC(c1ccc(O)cc1)C1(O)CCCCC1` (stereo not given) [O-desmethylvenlafaxine], the LC retention time was 4.8 min.
For the compound `CCN(CC)C(=O)SCc1ccccc1Cl` [Orbencarb], the LC retention time was 13.3 min.
With `CCC(CC)OC1C=C(C(=O)O)CC(N)C1NC(C)=O` (stereo not given) [Oseltamivir carboxylate], the LC retention time is 5.1 min.
Consider `CCOC(=O)C1=CC(OC(CC)CC)C(NC(C)=O)C(N)C1` (stereo not given) [Oseltamivir], for which the LC retention time is 7 min.
For the compound `O=C1Nc2ccc(Cl)cc2C(c2ccccc2)=NC1O` (stereo not given) [Oxazepam], the LC retention time was 9 min.
With `COc1ccnc(CS(=O)c2nc3ccc(OC(F)F)cc3[nH]2)c1OC` (stereo not given) [Pantoprazole], the LC retention time was 6.6 min.
Consider `CC(=O)Nc1ccc(O)cc1` [Paracetamol], for which the LC retention time was 2.2 min.
For `O=C(O)C(F)(F)C(F)(F)C(F)(F)F` [Perfluorobutyric acid], the LC retention time is 5.1 min.
To `O=C(O)C(F)(F)C(F)(F)C(F)(F)C(F)(F)C(F)(F)C(F)(F)C(F)(F)C(F)(F)C(F)(F)F` [Perfluorodecanoic acid] belongs 15.2 min.
Consider `O=P(O)(O)OCCC(F)(F)C(F)(F)C(F)(F)C(F)(F)C(F)(F)C(F)(F)C(F)(F)C(F)(F)F` [Perfluorodecyl phosphate], for which the LC retention time is 14.7 min.
For the compound `O=C(O)C(F)(F)C(F)(F)C(F)(F)C(F)(F)C(F)(F)C(F)(F)F` [Perfluoroheptanoic acid], the LC retention time is 11.1 min.
`O=C(O)C(F)(F)C(F)(F)C(F)(F)C(F)(F)C(F)(F)F` [Perfluorohexanoic acid]: the LC retention time was 9.3 min.
For the compound `O=C(O)C(F)(F)C(F)(F)C(F)(F)C(F)(F)C(F)(F)C(F)(F)C(F)(F)C(F)(F)F` [Perfluorononanoic acid], the LC retention time is 13.9 min.
In the case of `O=C(O)CNS(=O)(=O)C(F)(F)C(F)(F)C(F)(F)C(F)(F)C(F)(F)C(F)(F)C(F)(F)C(F)(F)F` [Perfluorooctane sulfonamidoacetic acid], the LC retention time was 15.9 min.
Take `O=C(O)C(F)(F)C(F)(F)C(F)(F)C(F)(F)C(F)(F)C(F)(F)C(F)(F)F` [Perfluorooctanoic acid]: the LC retention time is 12.6 min.
Regarding `O=P(O)(O)OCCC(F)(F)C(F)(F)C(F)(F)C(F)(F)C(F)(F)C(F)(F)F` [Perfluorooctyl phosphate], the LC retention time is 12.1 min.
Consider `O=C(O)C(F)(F)C(F)(F)C(F)(F)C(F)(F)F` [Perfluoropentanoic acid], for which the LC retention time was 7.3 min.
Next, `O=C(O)C(F)(F)C(F)(F)C(F)(F)C(F)(F)C(F)(F)C(F)(F)C(F)(F)C(F)(F)C(F)(F)C(F)(F)F` [Perfluoroundecanoic acid]: 16.3 min; `CCOCCN(C(=O)CCl)C(=C(C)C)c1ccccc1` [Pethoxamide]: 11.5 min; `COC(=O)Nc1cccc(OC(=O)Nc2cccc(C)c2)c1` [Phenmedipham]: 9.5 min.
With `CCc1cc(C)cc(CC)c1-c1c(OC(=O)C(C)(C)C)n2n(c1=O)CCOCC2` [Pinoxaden], the LC retention time was 13.7 min.
For the compound `Cc1nc(N(C)C)nc(OC(=O)N(C)C)c1C` [Pirimicarb], the LC retention time was 5 min.
To `CCC(C)C(=O)OC1CC(O)C=C2C=CC(C)C(CCC(O)CC(O)CC(=O)O)C21` (stereo not given) [Pravastatin] belongs 9.2 min; to `CC12C=CC(=O)C=C1CCC1C2C(O)CC2(C)C1CCC2(O)C(=O)CO` (stereo not given) [Prednisolone], 8 min; to `CCC1(c2ccccc2)C(=O)NCNC1=O` [Primidone], 5.4 min.
